Here are results for 6 molecules from PMC11192437, “Molecular and structural basis of oligopeptide recognition by the Ami transporter system in pneumococci” (PLOS Pathogens, 2024).

Assay [1] has as its target AliC (residues 24–655), oligopeptide-binding lipoprotein of the Ami system, without the lipobox segment (Streptococcus pneumoniae). Put plainly: AUC; sedimentation velocity, 20 mM Tris–HCl pH 7.5, 20°C, 4.1 μM protein, c(s) distribution (SEDFIT).
Assay [2] has the same target. The assay is described as follows: crystal structure; AliC in the open conformation, no peptide; 0.1 M Bis-Tris pH 6.5, 25% PEG3350; 2.38 Å; domain-swapped dimer.
For assay [3], the target named is AliD (residues 28–652), oligopeptide-binding lipoprotein of the Ami system, without the lipobox segment (Streptococcus pneumoniae). The assay is described as follows: MST; 20 nM RED-NHS-labelled AliD and unlabelled peptides (7.63x10^-6–0.125 mM) both in solution, PBS, 25°C, 40% LED power, medium MST power, Monolith NT.115; three independent experiments.
The test system of assay [4] is AliD. Put plainly: Microscale thermophoresis (MST) peptide binding to AliD. On the set-up: species or system Streptococcus pneumoniae. The settings on record: 20 nM RED-NHS-labeled AliD, peptide 7.63x10^-6–0.125 mM in PBS, 25°C. The procedure:
To investigate the conformational changes occurring in the Ami permease OBPs upon ligand binding, we synthesized specific peptides (Tables 1 and S2) previously reported to be substrates of these proteins. […] To verify specific binding of peptides to OBPs, binding of peptide 1 (FPPQSV), which is the natural substrate of AliD, and peptide 2 (AIQSEKARKHN) was measured to AliD by microscale thermophoresis (MST) (see methods). […] The crystal structure of the AliD:peptide 1 complex was obtained by co-crystallization (see Materials and Methods) at 2.18 Å resolution (Fig 3A).
Binding of peptides to heterologously expressed AliD was measured by microscale thermophoresis (MST). […] Analyzed peptides (1: FPPQSV and 2: AIQSEKARKHN) were diluted in PBS. […] Samples were loaded into standard capillaries (NanoTemper Technologies) and measured using the Monolith NT.115 machine (NanoTemper Technologies). […] Data of three independently conducted experiments were analyzed using the Mo.Affinity Analysis software version 2.3 from NanoTemper Technologies.
Supplementary file ppat.1011883.s017.tif: S6 Fig Peptide 1 structure in the AliD:peptide 1 complex. (A) Binding of peptide 1 and 2 to heterologously expressed AliD as analyzed by microscale thermophoresis (MST). […] Samples were measured using the Monolith NT.115 (NanoTemper Technologies) at 40% LED power and medium MST power at 25° C. […]

Assay [5] concerns AliD. The settings on record: peptide derived from Prevotella species; cited from earlier work.
In assay [6] the test system is AliD. The settings on record: peptide derived from Prevotella species; cited from earlier work. The source holds these as a separate data set.
In the next assay the test system is AliB. The settings on record: S2 Table; previously reported to bind AliB; ref 10 (table adapted from Nasher et al; 2018); cited from earlier work. From the text:
Supplement ppat.1011883.s002.docx, table 1 | column: OBP

In the case of “AliC (residues 24–655), oligopeptide-binding lipoprotein of the Ami system, without the lipobox segment (natural protein)”, the stoichiometry N in assay [1] and in assay [2] was 2 each time.
On to Peptide 1 (FPPQSV), for which, in assay [3], the Kd amounted to 3.44 µM.
“FPPQSV [Peptide 1, FPPQSV; Ribosome-associated GTPase EngA (Prevotella species)]”: the “Binding to AliD (in words)” value in the assay with AliD [4] is recorded as “concentration dependent binding”. Also, the “Gene expression change when bound by AliD” value with AliD [5] is recorded as “significant changes in gene expression”. Besides, the “Colonization when bound by AliD” value with AliD [6] was “enhanced colonization”.
Take “VMVKGPGPGREST [Peptide 4, …; 30S ribosomal protein S11 (multispecies)]”: the “Corresponding OBP” value in the assay on AliB is reported as “AliB”.
“PIVGGHEGAGV [Peptide 3, …; NDMA-dependent alcohol dehydrogenase (multispecies)]”: in the assay with AliB, the “Corresponding OBP” value is recorded as “AliB”.
The molecule AIQSEKARKHN [Peptide 2 (…)] showed a Kd in assay [3] of 14.4 µM.
